# Experimental data published in patent publication US9695426B2, “Biofuel production by recombinant microorganisms” (The Regents of the University of California, priority 2007, dated 2017).
# What was measured:
# [1] = system: native 1-butanol producers; conditions: cited from earlier work
# AHAS I = AHAS I (Escherichia coli, UniProt P08142); conditions: read-out: Km value for 2-ketobutyrate; cited from earlier work
# [2] = system: E. coli culture expressing kivd; assay: Alcohol productions with the supply of 2-keto acids; assay type: cell-based; conditions: 2-keto acid added to E. coli culture expressing kivd
# Description: The addition of various 2-keto acids (see Table 13) to the E. coli culture expressing kivd confirmed the specific production of the corresponding alcohols by 2- to 23-fold.
# E. coli TdcB = E. coli TdcB (Escherichia coli, UniProt P0AGF6); conditions: E. coli TdcB in the absence of AMP; cited from earlier work
# E. coli IlvA = E. coli IlvA (Escherichia coli, UniProt P04968); conditions: purified E. coli IlvA in the absence of isoleucine; cited from earlier work
# E. coli BW25113 = assay: propanol and butanol production via the threonine pathway with alternative enzymes; assay type: cell-based; conditions: BW ΔmetA, Δtdh, ΔilvB, ΔilvI; tdcB with leuABCD on pCS20; 72 hours
# Method: For some alcohol fermentation experiments, single colonies were picked from LB plates and inoculated into 3 ml of LB media with the appropriate antibiotics (ampicillin 100 μg/ml, kanamycin 50 μg/ml, and spectinomycin 50 μg/ml). The overnight culture grown in LB at 37° C. in a rotary shaker (250 rpm) was then inoculated (1% vol/vol) into 20 ml of M9 medium (6 g Na2HPO4, 3 g KH2PO4, 0.5 g NaCl, 1 g NH4Cl, 1 mM MgSO4, 10 mg vitamin B1 and 0.1 mM CaCl2 per liter of water) containing 30 g/L glucose, 5 g/L yeast extract, appropriate antibiotics, and 1000× Trace Metal Mix A5 (2.86 g H3BO3, 1.81 g MnCl2.4H2O, 0.222 g ZnSO4.7H2O, 0.39 g Na2MoO4.2H2O, 0.079 g CuSO4.5H2O, 49.4 mg Co(NO3)2.6H2O per liter water) in 250 ml conical flask. The culture was allowed to grow at 37° C. in a rotary shaker (250 rpm) to an OD600 of 0.4˜0.6, then 12 ml of the culture was transferred to a 250 ml screw capped conical flask and induced with 1 mM IPTG. The induced cultures were grown at 30° C. in a rotary shaker (240 rpm). Samples were taken throughout the next three to four days by opening the screwed caps of the flasks, and culture broths were either centrifuged or filtered to retrieve the supernatant. […]
# Metabolite Detections. The produced alcohol compounds were quantified by a gas chromatograph (GC) equipped with flame ionization detector. […]
# Chain of E. coli IlvA (P04968 whole entry): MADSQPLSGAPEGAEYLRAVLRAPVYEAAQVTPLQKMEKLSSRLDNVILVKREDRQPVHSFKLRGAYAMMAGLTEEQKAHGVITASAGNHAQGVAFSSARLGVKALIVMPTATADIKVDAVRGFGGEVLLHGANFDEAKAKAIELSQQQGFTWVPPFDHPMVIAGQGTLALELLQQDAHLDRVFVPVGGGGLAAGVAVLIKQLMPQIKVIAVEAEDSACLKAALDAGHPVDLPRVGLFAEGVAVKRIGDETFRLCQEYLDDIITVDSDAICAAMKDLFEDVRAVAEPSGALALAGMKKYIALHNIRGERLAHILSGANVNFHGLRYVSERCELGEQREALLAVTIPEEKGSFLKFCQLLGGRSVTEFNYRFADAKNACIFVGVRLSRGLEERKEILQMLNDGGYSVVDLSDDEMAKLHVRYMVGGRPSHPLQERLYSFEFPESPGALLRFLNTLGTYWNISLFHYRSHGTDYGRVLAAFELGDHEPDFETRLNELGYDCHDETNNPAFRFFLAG
# Chain of AHAS I (P0ADF8 whole entry): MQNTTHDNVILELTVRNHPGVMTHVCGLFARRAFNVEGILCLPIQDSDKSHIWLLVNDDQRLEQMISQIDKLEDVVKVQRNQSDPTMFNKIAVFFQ
# Chain of AHAS I (P08142 whole entry): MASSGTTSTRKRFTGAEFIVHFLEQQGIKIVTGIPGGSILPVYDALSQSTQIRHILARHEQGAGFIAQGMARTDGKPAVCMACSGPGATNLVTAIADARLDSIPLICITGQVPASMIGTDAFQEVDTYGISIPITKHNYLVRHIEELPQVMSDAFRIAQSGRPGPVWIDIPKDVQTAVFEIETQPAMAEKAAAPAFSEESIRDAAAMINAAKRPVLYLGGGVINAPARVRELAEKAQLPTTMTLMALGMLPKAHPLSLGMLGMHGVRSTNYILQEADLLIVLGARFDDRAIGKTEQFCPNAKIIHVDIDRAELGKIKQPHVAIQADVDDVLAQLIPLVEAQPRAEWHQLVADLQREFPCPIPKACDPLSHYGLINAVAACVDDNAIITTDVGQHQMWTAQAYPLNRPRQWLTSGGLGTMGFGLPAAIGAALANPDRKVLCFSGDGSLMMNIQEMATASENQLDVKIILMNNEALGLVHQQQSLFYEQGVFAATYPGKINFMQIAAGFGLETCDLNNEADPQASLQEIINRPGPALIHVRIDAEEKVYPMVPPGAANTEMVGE
molecule,measurement,setting,value
CCCCO [1-butanol],tolerated 1-butanol concentration,[1],up to 2%
CCC(=O)C(=O)O [2-ketobutyrate],Km,AHAS I,~5 mM
same,Product 1-butanol,[2],492 µM
same,Product 1-propanol,[2],2138 µM
same,Product 2-methyl-1-butanol,[2],1315 µM
same,Product 2-phenylethanol,[2],26 µM
same,Product isobutanol,[2],98 µM
C[C@@H](O)[C@H](N)C(=O)O [threonine],Km,E. coli TdcB,20 mM
same,Km,E. coli IlvA,8 mM
"TdcB: E. coli's catabolic threonine dehydratase (protein, UniProt P0AGF6 1-329, looked up) L-threonine dehydratase …: MHITYDLPVAIDDIIEAKQRLAGRIYKTGMPRSNYFSERCKGEIFLKFENMQRTGSFKIRGAFNKLSSLTDAEKRKGVVACSAGNHAQGVSLSCAMLGIDGKVVMPKGAPKSKVAATCDYSAEVVLHGDNFNDTIAKVSEIVEMEGRIFIPPYDDPKVIAGQGTIGLEIMEDLYDVDNVIVPIGGGGLIAGIAVAIKSINPTIRVIGVQSENVHGMAASFHSGEITTHRTTGTLADGCDVSRPGNLTYEIVRELVDDIVLVSEDEIRNSMIALIQRNKVVTEGAGALACAALLSGKLDQYIQNRKTVSIISGGNIDLSRVSQITGFVDA",lower production of both target alcohols compared to IlvA,E. coli BW25113,70%
